{"source": "patent US9821031B2", "about": "“Methods and compositions for treating hypoglycemic disorders” (priority 2007, dated 2017)", "key": {"SUR-1−/− islets [1]": {"system": "SUR-1−/− islets", "assay": "cAMP content determination in static incubations of isolated islets", "format": "cell-based, mouse", "procedure": "Islets were isolated as above, hand-picked and cultured for three days. Cultured islets were preincubated in glucose free Krebs-Ringer bicarbonate buffer for 60 min, 100 nM exendin-(9-39) was added 30 min into the preincubation period. Then, islets were exposed to different treatments for an additional 30 min in the presence of 0.1 mM isobutyl-methylzanthine (IBMX). After incubation, islets were washed 2 times by cold glucose-free Hank's buffer. cAMP was measured in islet lysates by ELISA (GE/Amersham Biosciences, Piscataway, N.J.)."}, "[2]": {"system": "SUR-1−/− and wild-type mice", "assay": "Insulin tolerance test (insulin sensitivity)", "format": "in vivo, mouse", "details": "insulin 0.5 units/kg i.p. after 4 hour fast, any of the treatment groups (FIG. 4B)", "procedure": "Alzet mini-osmotic pumps (model 2002; Alza, Palo Alto, Calif.) were implanted subcutaneously to deliver exendin-(9-39) (Bachem Bioscience, King of Prussia, Pa.) at a rate of 150 pmol/kg/min or vehicle (0.9% NaCl/1% BSA) for 2 weeks. For determination of fasting blood glucose levels mice were fasted for 12-16 hours. Oral glucose tolerance testing was carried after a 12-16 hour fast by administering 2 g/kg of dextrose by oral gavage (feeding needles; Popper and Sons, Inc., Hyde Park, N.Y.). For insulin tolerance testing mice received 0.5 units/kg of insulin intraperitoneally after a 4 hour fast. Blood glucose levels were measured using a hand-held glucose meter (FreeStyle; TheraSense, Alameda, Calif.). Insulin and glucagon were measured by ELISA (Mouse Endocrine Immunoassay Panel; Linco Research, Inc., St. Charles, Mo.). Twelve-18 week old male SUR-1^−/− and wildtype littermates underwent a baseline evaluation including fasting blood glucose measurements and oral glucose tolerance testing, followed by randomization to treatment with exendin-(9-39) (150 pmol/kg/min) or vehicle (0.9% NaCl, 1% BSA). Fasting blood glucose levels were determined after an overnight fast on days 3 and 7 of the infusion. In addition, oral glucose tolerance and insulin sensitivity were evaluated during treatment. […]"}, "SUR-1−/− mice [3]": {"system": "SUR-1−/− mice", "assay": "Fasting hormonal profile (insulin, glucagon, insulin/glucose ratio)", "format": "in vivo, mouse", "procedure": "Alzet mini-osmotic pumps (model 2002; Alza, Palo Alto, Calif.) were implanted subcutaneously to deliver exendin-(9-39) (Bachem Bioscience, King of Prussia, Pa.) at a rate of 150 pmol/kg/min or vehicle (0.9% NaCl/1% BSA) for 2 weeks. For determination of fasting blood glucose levels mice were fasted for 12-16 hours. Oral glucose tolerance testing was carried after a 12-16 hour fast by administering 2 g/kg of dextrose by oral gavage (feeding needles; Popper and Sons, Inc., Hyde Park, N.Y.). For insulin tolerance testing mice received 0.5 units/kg of insulin intraperitoneally after a 4 hour fast. Blood glucose levels were measured using a hand-held glucose meter (FreeStyle; TheraSense, Alameda, Calif.). Insulin and glucagon were measured by ELISA (Mouse Endocrine Immunoassay Panel; Linco Research, Inc., St. Charles, Mo.)."}, "SUR-1−/− islets [4]": {"system": "SUR-1−/− islets", "assay": "Insulin secretion in static incubations of isolated islets", "format": "cell-based, mouse"}, "SUR-1−/− islets [5]": {"system": "SUR-1−/− islets", "assay": "Islet perifusion, fuel-induced insulin secretion", "format": "cell-based, mouse", "details": "perifused SUR-1−/− islets", "procedure": "Islets were isolated by collagenase digestion and cultured for 3 days in RPMI 1640 medium containing 10 mM glucose. The culture medium was supplemented with 10% fetal bovine serum, 2 mM glutamine, 100 units/mL penicillin, and 50 μg/mL streptomycin. Islets were incubated at 37° C. in a 5% CO2, 95% air-humidified incubator. Batches of 100 cultured mouse islets were loaded onto a nylon filter in a chamber and perifused with Krebs-Ringer bicarbonate buffer (115 mM NaCl, 24 mM NaHCO3, 5 mM KCl, 1 mM MgCl2, 2.5 mM CaCl2, 10 mM HEPES, pH 7.4) with 0.25% bovine serum albumin at a flow rate of 2 mL/min. Perifusate solutions were gassed with 95% O2, 5% CO2 and maintained at 37° C. Islets were stimulated with a ramp of amino acids. The physiologic mixture of 19 amino acids when used at a maximum concentration of 12 mM (about 3 times physiological concentration) had the following composition (in mM): glutamine 2, alanine 1.25, arginine 0.53, aspartate 0.11, citrulline 0.27, glutamate 0.35, glycine 0.85, histidine 0.22, isoleucine 0.27, leucine 0.46, lysine 1.06, methionine 0.14, ornithine 0.20, phenylalanine 0.23, proline 1, serine 1.62, threonine 0.77, tryptophan 0.21, valine 0.57. Samples were collected every minute for insulin assays. Insulin was measured by radioimmunoassay (Linco Research Inc., St. Charles, Mo.)."}, "SUR-1−/− mice [6]": {"system": "SUR-1−/− mice", "assay": "Fasting blood glucose during continuous subcutaneous exendin-(9-39) infusion", "format": "in vivo, mouse", "details": "for Fasting blood glucose levels: 150 pmol/kg/min s.c. pump, overnight fast", "excerpt": "(§1) SUR-1^−/− mice were kindly provided by Dr. Mark A. Magnuson. The generation and genotyping of SUR-1^−/− mice were previously described (8). Mice are maintained in a C57B1/6 genetic background. Twelve to eighteen week SUR-1^−/− and wild-type littermate control mice were used in all experiments. Mice were maintained on a 12:12-h light-dark cycle and were fed a standard rodent chow diet. All procedures were approved and carried out according to the University of Pennsylvania Institutional Animal Care and Use Committee Guidelines. Alzet mini-osmotic pumps (model 2002; Alza, Palo Alto, Calif.) were implanted subcutaneously to deliver exendin-(9-39) (Bachem Bioscience, King of Prussia, Pa.) at a rate of 150 pmol/kg/min or vehicle (0.9% NaCl/1% BSA) for 2 weeks. For determination of fasting blood glucose levels mice were fasted for 12-16 hours. Oral glucose tolerance testing was carried after a 12-16 hour fast by administering 2 g/kg of dextrose by oral gavage (feeding needles; Popper and Sons, Inc., Hyde Park, N.Y.). For insulin tolerance testing mice received 0.5 units/kg of insulin intraperitoneally after a 4 hour fast. Blood glucose levels were measured using a hand-held glucose meter (FreeStyle; TheraSense, Alameda, Calif.). Insulin and glucagon were measured by ELISA (Mouse Endocrine Immunoassay Panel; Linco Research, Inc., St. Charles, Mo.). Twelve-18 week old male SUR-1^−/− and wildtype littermates underwent a baseline evaluation including fasting blood glucose measurements and oral glucose tolerance testing, followed by randomization to treatment with exendin-(9-39) (150 pmol/kg/min) or vehicle (0.9% NaCl, 1% BSA). Fasting blood glucose levels were determined after an overnight fast on days 3 and 7 of the infusion. In addition, oral glucose tolerance and insulin sensitivity were evaluated during treatment. […] After an oral load of glucose, SUR-1^−/− mice were glucose intolerant when compared to littermate wild-type controls (p<0.0001, repeated measures ANOVA) (FIG. 1C). The SUR-1^−/− mice have a significant impairment of insulin secretion in response to an oral glucose load (wildtype vs. SUR-1^−/−: p=0.02, repeated measures ANOVA) (FIG. 1D). Exendin-(9-39) was administered via an Azlet miniosmotic subcutaneous pump at a continuous infusion rate of 150 pmol/kg/min for 2 weeks. This dose was chosen based on results of a pilot study evaluating different doses previously shown to have an effect in normal humans and mice."}, "wild-type littermates [7]": {"system": "wild-type littermates", "assay": "Fasting blood glucose during continuous subcutaneous exendin-(9-39) infusion", "format": "in vivo, mouse", "details": "wild-type mice, 150 pmol/kg/min", "excerpt": "as §1"}, "SUR-1−/− islets [8]": {"system": "SUR-1−/− islets", "assay": "Cytosolic free Ca2+ measurement (Fura-2)", "format": "cell-based, mouse", "details": "for Amino acid-stimulated rise in intracellular calcium: SUR-1−/− islets, amino acids 4 mM (FIG. 6)", "procedure": "Mouse islets were isolated and cultured on poly-[…] coated glass coverslips under the same conditions as described above. The perifusion procedure and cytosolic-free Ca2+ ([Ca2+]i) measurement were described previously (24). In brief, the coverslip with attached islets was incubated with 15 μM Fura-2 acetoxymethylester (Molecular Probes, Eugene, Oreg.) in Krebs-Ringer bicarbonate buffer with 5 mM glucose for 35 min at 37° C. Islets were then perifused with Krebs-Ringer bicarbonate buffer with 0.25% bovine serum albumin at 37° C. at a flow rate of 2mL/min, while various agents were applied. [Ca2+]i was measured with a dual wavelength fluorescence microscope as previously described."}, "SUR-1−/− mice [9]": {"system": "SUR-1−/− mice", "assay": "Oral glucose tolerance test", "format": "in vivo, mouse", "procedure": "as §1, with “Alzet” for “SUR-1^−/− mice were kindly provided by Dr. Mark A. Magnuson. The generation and genotyping of SUR-1^−/− mice were previously described (8). Mice are maintained in a C57B1/6 genetic background. Twelve to eighteen week SUR-1^−/− and wild-type littermate control mice were used in all experiments. Mice were maintained on a 12:12-h light-dark cycle and were fed a standard rodent chow diet. All procedures were approved and carried out according to the University of Pennsylvania Institutional Animal Care and Use Committee Guidelines. Alzet”"}, "wild-type littermates [10]": {"system": "wild-type littermates", "assay": "Oral glucose tolerance test", "format": "in vivo, mouse", "details": "oral glucose 2 g/kg, during treatment (FIG. 4A)", "procedure": "as §1, with “Alzet” for “SUR-1^−/− mice were kindly provided by Dr. Mark A. Magnuson. The generation and genotyping of SUR-1^−/− mice were previously described (8). Mice are maintained in a C57B1/6 genetic background. Twelve to eighteen week SUR-1^−/− and wild-type littermate control mice were used in all experiments. Mice were maintained on a 12:12-h light-dark cycle and were fed a standard rodent chow diet. All procedures were approved and carried out according to the University of Pennsylvania Institutional Animal Care and Use Committee Guidelines. Alzet”"}, "[11]": {"details": "during treatment, SUR-1−/− and wild-type (FIG. 3A)"}}, "note": "“Also recorded” adds a separate entry of the source. Marks after values point to notes of the source that are not given here."}
{"substance": "Exendin (9-39) [Exendin-(9-39)]", "values": [{"measurement": "cAMP Content", "setting": "SUR-1−/− islets [1]; 100 nM exendin-(9-39) + 4 mM AAM (amino acid-stimulated)", "result": "52.5 ± 9.4^c pmol/100 islets"}, {"measurement": "cAMP Content", "setting": "SUR-1−/− islets [1]; 100 nM exendin-(9-39) + 4 mM AAM (amino acid-stimulated), listed as exendin-(9-39)", "result": "20.9±4.4", "unit": "pmol/100 islets"}, {"measurement": "cAMP Content", "setting": "SUR-1−/− islets [1]; basal, 100 nM exendin-(9-39), no exogenous GLP-1, glucose free KRBB, baseline 40.1 ± 4.2", "result": "20.5 ± 2.3^a pmol/100 islets"}, {"measurement": "cAMP Content", "setting": "SUR-1−/− islets [1]; basal, 100 nM exendin-(9-39), no exogenous GLP-1, glucose free KRBB, baseline 40.1 ± 4.2, listed as exendin-(9-39)", "result": "20.5±2.3", "unit": "pmol/100 islets"}, {"measurement": "Peripheral insulin sensitivity", "setting": "[2]", "result": "did not impact; also recorded: did not influence"}, {"measurement": "Insulin/glucose ratio", "setting": "SUR-1−/− mice [3]; SUR-1−/− mice, WT vs. SUR-1−/− Ex-(9-39) p=0.32 (FIG. 3B)", "result": "normalized"}, {"measurement": "Fasting glucagon levels among treatment groups", "setting": "SUR-1−/− mice [3]; [11]", "result": "not different"}, {"measurement": "Fasting insulin levels among treatment groups", "setting": "SUR-1−/− mice [3]; [11]", "result": "not different"}, {"measurement": "Insulin Secretion", "setting": "SUR-1−/− islets [4]; 100 nM exendin-(9-39) + 4 mM AAM (amino acid-stimulated), AAM alone 389 ± 17", "result": "219 ± 14", "unit": "ng/100 islets/30 min"}, {"measurement": "Insulin Secretion", "setting": "SUR-1−/− islets [4]; 100 nM exendin-(9-39) + 4 mM AAM (amino acid-stimulated), AAM alone 389 ± 17, listed as exendin-(9-39)", "result": "219±14", "unit": "ng/100 islets/30 min"}, {"measurement": "Insulin Secretion", "setting": "SUR-1−/− islets [4]; basal, 100 nM exendin-(9-39), baseline 221 ± 22", "result": "126 ± 12^a ng/100 islets/30 min"}, {"measurement": "Insulin Secretion", "setting": "SUR-1−/− islets [4]; basal, 100 nM exendin-(9-39), baseline 221 ± 22, listed as exendin-(9-39)", "result": "126±12", "unit": "ng/100 islets/30 min"}, {"measurement": "Insulin response to KCl, presence vs. absence of exendin-(9-39)", "setting": "SUR-1−/− islets [5]; 100 nM exendin-(9-39)", "result": "similar"}, {"measurement": "Insulin release in response to ramp of amino acid mixture", "setting": "SUR-1−/− islets [5]; amino acids 0-12 mM, 100 nM exendin-(9-39) (FIG. 5)", "result": "blocked"}, {"measurement": "Fasting blood glucose levels", "setting": "SUR-1−/− mice [6]; day 3, mean±SEM", "result": "82.2 ± 6.3", "unit": "mg/dL"}, {"measurement": "Fasting blood glucose levels", "setting": "SUR-1−/− mice [6]; day 7, mean±SEM", "result": "82 ± 4.7", "unit": "mg/dL"}, {"measurement": "Effect on fasting blood glucose levels (in words)", "setting": "SUR-1−/− mice [6]; 12-16 hour fast, day 7 (FIG. 2)", "result": "normalized"}, {"measurement": "Fasting blood glucose levels vs. vehicle-treated wild type controls", "setting": "wild-type littermates [7]", "result": "not different"}, {"measurement": "Basal intracellular calcium", "setting": "SUR-1−/− islets [8]; SUR-1−/− islets (FIG. 6)", "result": "did not affect"}, {"measurement": "Amino acid-stimulated rise in intracellular calcium", "setting": "SUR-1−/− islets [8]", "result": "no effect"}, {"measurement": "Amino acid-stimulated rise in intracellular calcium", "setting": "SUR-1−/− islets [8]; listed as exendin-(9-39)", "result": "did not impact"}, {"measurement": "Glucose tolerance", "setting": "SUR-1−/− mice [9]; oral glucose 2 g/kg, during treatment (FIG. 4A)", "result": "did not significantly impair; also recorded: did not influence"}, {"measurement": "Return to baseline blood glucose levels", "setting": "SUR-1−/− mice [9]; oral glucose tolerance test, 120 minute time point", "result": "minor delay"}, {"measurement": "Glucose tolerance", "setting": "wild-type littermates [10]", "result": "no effect"}]}
